Data: the NIST ThermoML archive (doi:10.1016/j.jct.2016.10.031)
Numbers after ± are expanded uncertainties.

Test: Molar enthalpy of transition or fusion
Conditions: Crystal; Adiabatic calorimetry

Molar enthalpy of transition or fusion: 4.802 ± 0.0406 kcal/mol
SMILES: CC(C)(C)c1ccc(Oc2ccc([N+](=O)[O-])cc2)cc1 [1-(tert-butyl)-4-(4-nitrophenoxy)benzene]
